This note sets out measurements from patent publication US10160747B2, “Compounds and methods for kinase modulation, and indications therefor” (Plexxikon Inc., priority 2016, dated 2018).

Assay [1] deals with MOLM-14 F691L (endogenous FLT3 ITD and transfected FLT3 F691L). The assay is described as follows: MOLM-14 F691L cell proliferation assay (CellTiter-Glo). The format is cell-based. Conditions: Homo sapiens, MOLM-14, 72 h; 3 d growth, GMean. The method in brief:
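MOLM-14 cells (FLT3 ITD) carrying D835Y or F691L, 1×10^4 cells/well, eight 1:3 dilutions from 1 μM final, 0.2% DMSO, 3 days at 37 °C, 5% CO2. Viability by CellTiter-Glo luminescence (ATP content); IC50 from concentration-response.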

Another assay concerns the target CSF1R (Homo sapiens, UniProt P07333). Put plainly: CSF1R 100 ATP 8 pt kinase assay (Table 6). The class given is biochemical. An excerpt:
The following Table 6 provides data indicating FLT3 ITD, D835Y and F691L; c-KIT and CSF1R biochemical and/or cell inhibitory activity for exemplary compounds as described herein.

CSF1R, sequence (P07333 20-972, species assumed): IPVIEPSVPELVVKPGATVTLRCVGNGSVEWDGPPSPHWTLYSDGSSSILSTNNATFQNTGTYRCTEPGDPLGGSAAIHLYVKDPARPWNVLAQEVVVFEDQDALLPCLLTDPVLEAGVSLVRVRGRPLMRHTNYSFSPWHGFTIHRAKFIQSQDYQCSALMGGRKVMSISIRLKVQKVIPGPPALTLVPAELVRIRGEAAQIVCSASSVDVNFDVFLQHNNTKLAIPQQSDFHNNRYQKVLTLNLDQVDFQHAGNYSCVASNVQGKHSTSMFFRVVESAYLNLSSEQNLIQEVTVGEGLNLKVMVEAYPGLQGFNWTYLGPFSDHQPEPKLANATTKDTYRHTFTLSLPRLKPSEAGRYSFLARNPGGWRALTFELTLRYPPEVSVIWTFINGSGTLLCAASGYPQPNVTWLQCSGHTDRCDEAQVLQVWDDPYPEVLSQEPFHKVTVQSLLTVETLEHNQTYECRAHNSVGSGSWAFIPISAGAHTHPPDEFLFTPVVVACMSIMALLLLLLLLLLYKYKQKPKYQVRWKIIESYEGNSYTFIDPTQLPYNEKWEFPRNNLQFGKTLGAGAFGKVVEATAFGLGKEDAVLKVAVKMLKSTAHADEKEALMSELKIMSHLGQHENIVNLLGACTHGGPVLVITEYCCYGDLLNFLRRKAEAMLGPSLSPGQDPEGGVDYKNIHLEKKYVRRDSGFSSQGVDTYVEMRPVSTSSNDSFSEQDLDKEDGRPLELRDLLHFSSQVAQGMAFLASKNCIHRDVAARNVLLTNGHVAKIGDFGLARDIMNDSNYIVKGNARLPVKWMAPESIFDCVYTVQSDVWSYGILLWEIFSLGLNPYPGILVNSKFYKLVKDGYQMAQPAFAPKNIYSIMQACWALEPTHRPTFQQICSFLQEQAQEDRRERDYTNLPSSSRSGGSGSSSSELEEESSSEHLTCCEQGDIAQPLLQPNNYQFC

With `COc1ncc(NC(=O)Cc2ccc(-c3cnc4[nH]nc(OC)c4c3)cc2)cc1C(F)(F)F` [Compound P-0212, 2-[4-(3-methoxy-1H-pyrazolo[3,4-b]pyridin-5-yl)phenyl]-N-[6-methoxy-5-(trifluoromethyl)-3-pyridyl]acetamide], the half-inhibitory concentration (IC50) (in assay [1]; at CSF1R) was 0.0001 to 10 µM throughout. As to `CCOc1n[nH]c2ncc(-c3ccc(CC(=O)Nc4cnc(OC)c(C(F)(F)F)c4)cc3)cc12` [Compound P-0213, 2-(4-(3-ethoxy-1H-pyrazolo[3,4-b]pyridin-5-yl)phenyl)-N-(6-methoxy-5-(trifluoromethyl)pyridin-3-yl)acetamide], the IC50 (in assay [1]; against CSF1R) was 0.0001 to 10 µM throughout. In the case of `COc1ncc(NC(=O)Cc2ccc(-c3cnc4[nH]nc(NC(=O)C(F)(F)F)c4c3)cc2)cc1C(F)(F)F` [Compound P-0215, 2,2,2-trifluoro-N-[5-[4-[2-[[6-methoxy-5-(trifluoromethyl)-3-pyridyl]amino]-2-oxo-ethyl]phenyl]-1H-pyrazolo[3,4-b]pyridin-3-yl]acetamide], the IC50 (in assay [1]; on CSF1R) was 0.0001 to 10 µM throughout. Take `COc1ncc(NC(=O)Cc2ccc(-c3cnc4[nH]nc(N)c4c3)cc2)cc1C(F)(F)F` [Compound P-0216, 2-(4-(3-amino-1H-pyrazolo[3,4-b]pyridin-5-yl)phenyl)-N-(6-methoxy-5-(trifluoromethyl)pyridin-3-yl)acetamide]: the IC50 (in assay [1]; against CSF1R) was 0.0001 to 10 µM each time. As to `CCOc1n[nH]c2ncc(-c3ccc(CC(=O)Nc4cnc(C)c(C(F)(F)F)c4)cc3)cc12` [Compound P-0217, 2-[4-(3-ethoxy-1H-pyrazolo[3,4-b]pyridin-5-yl)phenyl]-N-[6-methyl-5-(trifluoromethyl)-3-pyridyl]acetamide], the IC50 (in assay [1]; against CSF1R) was 0.0001 to 10 µM in each case. Regarding `COc1n[nH]c2ncc(-c3ccc(CC(=O)Nc4cnc(C)c(C(F)(F)F)c4)cc3)cc12` [Compound P-0218, 2-[4-(3-methoxy-1H-pyrazolo[3,4-b]pyridin-5-yl)phenyl]-N-[6-methyl-5-(trifluoromethyl)-3-pyridyl]acetamide], the IC50 (in assay [1]; against CSF1R) was 0.0001 to 10 µM in each case. For `Cc1ncc(NC(=O)Cc2ccc(-c3cnc4[nH]c(C#CC(C)(C)O)cc4c3)cc2)cc1C(F)(F)F` [Compound P-0220, 2-[4-[2-(3-hydroxy-3-methyl-but-1-ynyl)-1H-pyrrolo[2,3-b]pyridin-5-yl]phenyl]-N-[6-methyl-5-(trifluoromethyl)-3-pyridyl]acetamide], the IC50 (in assay [1]; on CSF1R) was 0.0001 to 10 µM throughout. Regarding `COc1ncc(NC(=O)Cc2ccc(-c3cnc4[nH]nc(Cl)c4c3)cc2)cc1C(F)(F)F` [Compound P-0230, 2-[4-(3-chloro-1H-pyrazolo[3,4-b]pyridin-5-yl)phenyl]-N-[6-methoxy-5-(trifluoromethyl)-3-pyridyl]acetamide], the IC50 (in assay [1]; at CSF1R) was 0.0001 to 10 µM in each case.

In assay [1], `CCn1cc(Nc2ncc(-c3ccc(CC(=O)Nc4cnc(C)c(C(F)(F)F)c4)cc3)cn2)cn1` [Compound P-0254, 2-[4-[2-[(1-ethylpyrazol-4-yl)amino]pyrimidin-5-yl]phenyl]-N-[6-methyl-5-(trifluoromethyl)-3-pyridyl]acetamide] had an IC50 of 0.0001 to 10 µM. Same read-out and setting: with `CCn1cc(Nc2ncc(-c3ccc(CC(=O)Nc4cc(C(F)(F)F)ccn4)c(F)c3)cn2)cn1` [Compound P-0255, 2-[4-[2-[(1-ethylpyrazol-4-yl)amino]pyrimidin-5-yl]-2-fluoro-phenyl]-N-[4-(trifluoromethyl)-2-pyridyl]acetamide] the figure was 0.0001 to 10 µM; with `CCn1cc(Nc2ncc(-c3ccc(CC(=O)Nc4ccc(C(F)(F)F)cn4)c(F)c3)cn2)cn1` [Compound P-0256, 2-[4-[2-[(1-ethylpyrazol-4-yl)amino]pyrimidin-5-yl]-2-fluoro-phenyl]-N-[5-(trifluoromethyl)-2-pyridyl]acetamide], 0.0001 to 10 µM. Same read-out and setting: the same measure for `CCn1cc(Nc2ncc(-c3ccc(CC(=O)Nc4ccc(C(F)(F)F)nc4)c(F)c3)cn2)cn1` [Compound P-0257, 2-[4-[2-[(1-ethylpyrazol-4-yl)amino]pyrimidin-5-yl]-2-fluoro-phenyl]-N-[6-(trifluoromethyl)-3-pyridyl]acetamide]: 0.0001 to 10 µM; for `CCn1cc(Nc2ncc(-c3ccc(CC(=O)Nc4cncc(C(F)(F)F)c4)c(F)c3)cn2)cn1` [Compound P-0258, 2-[4-[2-[(1-ethylpyrazol-4-yl)amino]pyrimidin-5-yl]-2-fluoro-phenyl]-N-[5-(trifluoromethyl)-3-pyridyl]acetamide]: 0.0001 to 10 µM.

`CCn1cc(Nc2ncc(-c3ccc(CC(=O)Nc4cnc(OC)c(C(F)(F)F)c4)c(F)c3)cn2)cn1` [Compound P-0259, 2-[4-[2-[(1-ethylpyrazol-4-yl)amino]pyrimidin-5-yl]-2-fluoro-phenyl]-N-[6-methoxy-5-(trifluoromethyl)-3-pyridyl]acetamide]: the concentration for half-maximal inhibition (IC50) in assay [1] was in the range of 0.0001 to 10 µM.

Regarding `CCn1cc(Nc2ncc(-c3ccc(CC(=O)Nc4cnc(Cl)c(C(F)(F)F)c4)c(F)c3)cn2)cn1` [Compound P-0260, N-[6-chloro-5-(trifluoromethyl)-3-pyridyl]-2-[4-[2-[(1-ethylpyrazol-4-yl)amino]pyrimidin-5-yl]-2-fluoro-phenyl]acetamide], in assay [1], the IC50 is 0.0001 to 10 µM. Consider `CCn1cc(Nc2ncc(-c3ccc(CC(=O)Nc4cnc(C)c(C(F)(F)F)c4)c(F)c3)cn2)cn1` [Compound P-0261, 2-[4-[2-[(1-ethylpyrazol-4-yl)amino]pyrimidin-5-yl]-2-fluoro-phenyl]-N-[6-methyl-5-(trifluoromethyl)-3-pyridyl]acetamide], for which the IC50 in assay [1] lay in the range of 0.0001 to 10 µM. On the same count and under the same terms, with `COc1ncc(NC(=O)Cc2ccc(-c3cnc4[nH]nc(C5CC5)c4c3)cc2F)cc1C(F)(F)F` [Compound P-0262, 2-[4-(3-cyclopropyl-1H-pyrazolo[3,4-b]pyridin-5-yl)-2-fluoro-phenyl]-N-[6-methoxy-5-(trifluoromethyl)-3-pyridyl]acetamide] the figure was 0.0001 to 10 µM; with `COc1ncc(NC(=O)Cc2ccc(-c3cnc4[nH]nc(C5CC5)c4c3)cc2)cc1C(F)(F)F` [Compound P-0263, 2-[4-(3-cyclopropyl-1H-pyrazolo[3,4-b]pyridin-5-yl)phenyl]-N-[6-methoxy-5-(trifluoromethyl)-3-pyridyl]acetamide], 0.0001 to 10 µM; with `COCCn1cc(Nc2ncc(-c3ccc(CC(=O)Nc4cnc(OC)c(C(F)(F)F)c4)c(F)c3)cn2)cn1` [Compound P-0265, 2-[2-fluoro-4-[2-[[1-(2-methoxyethyl)pyrazol-4-yl]amino]pyrimidin-5-yl]phenyl]-N-[6-methoxy-5-(trifluoromethyl)-3-pyridyl]acetamide], 0.0001 to 10 µM. Still for that read-out and setting: with `COCCn1cc(Nc2ncc(-c3ccc(CC(=O)Nc4cnc(Cl)c(C(F)(F)F)c4)c(F)c3)cn2)cn1` [Compound P-0266, N-[6-chloro-5-(trifluoromethyl)-3-pyridyl]-2-[2-fluoro-4-[2-[[1-(2-methoxyethyl)pyrazol-4-yl]amino]pyrimidin-5-yl]phenyl]acetamide] the figure was 0.0001 to 10 µM; with `COCCn1cc(Nc2ncc(-c3ccc(CC(=O)Nc4cncc(C(F)(F)F)c4)c(F)c3)cn2)cn1` [Compound P-0267, 2-[2-fluoro-4-[2-[[1-(2-methoxyethyl)pyrazol-4-yl]amino]pyrimidin-5-yl]phenyl]-N-[5-(trifluoromethyl)-3-pyridyl]acetamide], 0.0001 to 10 µM; with `COCCn1cc(Nc2ncc(-c3ccc(CC(=O)Nc4ccc(C(F)(F)F)nc4)c(F)c3)cn2)cn1` [Compound P-0268, 2-[2-fluoro-4-[2-[[1-(2-methoxyethyl)pyrazol-4-yl]amino]pyrimidin-5-yl]phenyl]-N-[6-(trifluoromethyl)-3-pyridyl]acetamide], 0.0001 to 10 µM. Regarding `COCCn1cc(Nc2ncc(-c3ccc(CC(=O)Nc4ccc(C(F)(F)F)cn4)c(F)c3)cn2)cn1` [Compound P-0269, 2-[2-fluoro-4-[2-[[1-(2-methoxyethyl)pyrazol-4-yl]amino]pyrimidin-5-yl]phenyl]-N-[5-(trifluoromethyl)-2-pyridyl]acetamide], the IC50 in assay [1] was 0.0001 to 10 µM.

`COCCn1cc(Nc2ncc(-c3ccc(CC(=O)Nc4cc(C(F)(F)F)ccn4)c(F)c3)cn2)cn1` [Compound P-0270, 2-[2-fluoro-4-[2-[[1-(2-methoxyethyl)pyrazol-4-yl]amino]pyrimidin-5-yl]phenyl]-N-[4-(trifluoromethyl)-2-pyridyl]acetamide]: the IC50 in assay [1] lay in the range of 0.0001 to 10 µM.

Take `COCCn1cc(Nc2ncc(-c3ccc(CC(=O)Nc4cnc(OC)c(C(F)(F)F)c4)cc3)cn2)cn1` [Compound P-0271, 2-[4-[2-[[1-(2-methoxyethyl)pyrazol-4-yl]amino]pyrimidin-5-yl]phenyl]-N-[6-methoxy-5-(trifluoromethyl)-3-pyridyl]acetamide]: the IC50 in assay [1] lay within 0.0001 to 10 µM. With `COCCn1cc(Nc2ncc(-c3ccc(CC(=O)Nc4ccc(C(F)(F)F)nc4)cc3)cn2)cn1` [Compound P-0273, 2-[4-[2-[[1-(2-methoxyethyl)pyrazol-4-yl]amino]pyrimidin-5-yl]phenyl]-N-[6-(trifluoromethyl)-3-pyridyl]acetamide], in assay [1], the IC50 was in the range of 0.0001 to 10 µM.

Take `COCCn1cc(Nc2ncc(-c3ccc(CC(=O)Nc4ccc(C(F)(F)F)cn4)cc3)cn2)cn1` [Compound P-0274, 2-[4-[2-[[1-(2-methoxyethyl)pyrazol-4-yl]amino]pyrimidin-5-yl]phenyl]-N-[5-(trifluoromethyl)-2-pyridyl]acetamide]: the IC50 in assay [1] lay in the range of 0.0001 to 10 µM.
